For 20 compounds, AC40 and activation results are on record in PubChem BioAssay AID624275 (Broad Institute, 2012).

Active and inactive are the calls of the source. How the calls were made is not given here. Some results are limits rather than exact numbers.

For the first test, the system named is CqsS sensor histidine kinase (Vibrio cholerae). The test is described as follows: Light production inducers, absence of autoinducers, V. cholerae delta luxQ strain, confirmatory (AID 624275). The following applies: V. cholerae WN1103 delta luxQ, luciferase luminescence, 6 h.
Consider `CCn1nnnc1NCc1ccc(N2CCCC2)cc1`, for which the AC40 is 5.71 nM.

On to `COc1ccccc1NC(=O)COC(=O)c1oc2ccccc2c1C`, for which the AC40 was 2010 nM.

In the case of `COc1ccc(Cl)cc1NC(=O)COC(=O)c1ccc(C)o1`, the AC40 is 489 nM.

`COc1ccccc1NC(=O)COC(=O)c1cc2c(s1)CCC2`: the AC40 was 184 nM.

`COc1ccccc1NC(=O)COC(=O)c1ccc(C)cc1`: the AC40 is 2240 nM.

Turning to `CCCn1nnnc1NCc1ccc(N(CC)CC)cc1`, the AC40 is 90.1 nM.

As for `O=C(Cc1ccc(-c2ccccc2)cc1)NC1CCCC1`, the AC40 was 118 nM.

As for `O=c1ncn(-c2cccc(Cl)c2)c2ccccc12`, the AC40 was 29.4 nM.

`Cc1ccc(OCCNC(=O)c2cccc(C)c2)cc1`: the AC40 is 309 nM.

For the compound `Cc1c(Cl)cccc1-n1cnc(=O)c2ccccc21`, the AC40 was > 35000 nM (inactive).

Regarding `CCC(C)NC(=O)Cc1ccc(-c2ccccc2)cc1` (stereo not given), the AC40 was 1920 nM.

Consider `CCCn1nnnc1NCc1ccc(C(C)C)cc1`, for which the AC40 is 28.8 nM.

Turning to `O=C(Nc1nnc(-c2ccc3c(c2)OCCO3)o1)C1CCCCC1`, the AC40 is 2070 nM.

For the compound `CCCn1nnnc1NCc1ccc(N2CCCC2)cc1`, the AC40 was 29.2 nM.

Regarding `CCOc1ccc(Nc2ccc3nonc3c2[N+](=O)[O-])cc1`, the AC40 was 596 nM.

On to `Cc1ccc2cc3c(NC(=O)c4ccco4)nn(C)c3nc2c1`, for which the AC40 was 4220 nM.

The test is the same for the next values; noted with them: V. cholerae WN1103 delta luxQ, luciferase luminescence, 6 h; at 35 µM (top of the series).
As for `CCn1c(CC(=O)Nc2cccc(Cl)c2Cl)nnc1SCCOc1ccc(OC)cc1`, the activation is 0.37% (inactive).

On to `CCCn1nnnc1NCc1ccccc1Cl`, for which the activation was 0.419% (inactive).

With `CCn1nnc(NCc2ccc(C)cc2)n1`, the activation was 0.153% (inactive).

On to `Cc1ccc(CC(=O)NC2CCCC2)cc1`, for which the activation is 10.3% (inactive).
